IC50 data for 29 molecules are collected here from US9926299B2, “Inhibitors of bruton's tyrosine kinase” (Centaurus BioPharma Co., Ltd., priority 2012, dated 2018).

Assay [1] has as its target BTK kinase (Homo sapiens (Human), UniProt Q06187). The assay is described as follows: Btk kinase enzymatic assay (HTRF). The format is biochemical. To be noted: ATP at Km. How it is done:
Btk kinase activity was determined using a Homogeneous Time-Resolved Fluorescence (HTRF) methodology (Cisbio). […] The mixture was centrifuged and incubated for 5 min. […] For each compound, enzyme activity was measured at various concentrations of compound, and IC50s were obtained by GraFit Software 6.0 (Erithacus Software).

Assay [2] has as its system Ramos cells. The assay can be described thus: BCR-induced calcium flux fluorescence-based assay in Ramos cells. The following applies: Ramos cells stimulated with goat anti-human IgM antibody; read-out: Ramos Cell Ca Flux IC50. How it is done: Calcium flux fluorescence-based assays were performed using Fluo-4 Direct™ Calcium Assay Kits (purchased from Invitrogen) in a FlexStation III (purchased from Molecular Devices) according to manufacturer instructions. In brief, actively growing Romas cells in RPM1-1640 medium (purchased from Invitrogen) supplemented with 10% FBS (purchased from Hyclone) were washed and re-plated in low serum medium at approximately 1×10^5 cells per 45 μL per well in a 96-well plate (purchased from Corning), then added 45 μL of dye (purchased from Invitrogen) and incubated at 37 degree for 1 hour. Compounds to be assayed were dissolved and 3-fold serially diluted in DMSO and then diluted by 100 times in low serum medium. Then 10 μL of the diluted mixture were added to the above 96-well plate (final DMSO concentration was 0.1%) and incubated at 37 degree in 5% CO2 incubator for 0.5 hour. The compound-treated cells were stimulated with a goat anti-human IgM antibody (10 μg/ml; purchased from SouthernBiotech) and read in the FlexStation III using a λEx=494 nM and […] for 90 seconds. The relative fluorescence unit (RFU) and the IC50 were recorded and analyzed using a GraphPad Prism 5 (GraphPad Software).
(In general: A change in cytosolic calcium serves as a functional read-out for many receptors and channels.)

pIC50: −log10 of the molar value.

In general, pIC50 refers to the IC50 on a negative log10 scale, so that one unit is a factor of ten.

Chain of BTK kinase (Q06187 whole entry): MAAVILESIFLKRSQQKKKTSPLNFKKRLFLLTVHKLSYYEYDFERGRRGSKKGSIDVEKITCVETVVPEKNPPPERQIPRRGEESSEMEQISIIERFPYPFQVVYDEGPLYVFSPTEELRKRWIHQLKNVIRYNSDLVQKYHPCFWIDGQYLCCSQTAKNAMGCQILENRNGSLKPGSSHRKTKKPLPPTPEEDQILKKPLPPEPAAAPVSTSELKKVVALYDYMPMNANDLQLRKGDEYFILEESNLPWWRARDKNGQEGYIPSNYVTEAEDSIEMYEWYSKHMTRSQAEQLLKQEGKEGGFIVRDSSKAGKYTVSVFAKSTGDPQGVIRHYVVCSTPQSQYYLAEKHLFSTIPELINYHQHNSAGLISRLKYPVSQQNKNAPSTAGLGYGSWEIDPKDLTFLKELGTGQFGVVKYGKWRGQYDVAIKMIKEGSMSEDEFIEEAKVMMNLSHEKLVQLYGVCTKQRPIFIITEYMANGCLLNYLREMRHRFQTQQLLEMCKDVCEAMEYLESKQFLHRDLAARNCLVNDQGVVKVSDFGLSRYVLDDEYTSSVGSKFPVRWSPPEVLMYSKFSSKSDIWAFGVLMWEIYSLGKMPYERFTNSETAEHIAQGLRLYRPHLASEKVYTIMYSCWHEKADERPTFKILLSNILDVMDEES

With `C=CC(=O)N1CC[C@@H](n2nc(-c3ccc(Oc4ccccc4)cc3)c(C(N)=O)c2N)C1` [25 (R-isomer)], the pIC50 in assay [1] and in assay [2] was more than 7.00 each time.

As to `C=CC(=O)N1CC[C@H](n2nc(-c3ccc(Oc4ccccc4)cc3)c(C(N)=O)c2N)C1` [25 (S-isomer)], the pIC50 in assay [1] and in assay [2] was more than 7.00 each time.

On to `C=CS(=O)(=O)N1CCC[C@@H](n2nc(-c3ccc(Oc4ccccc4)cc3)c(C(N)=O)c2N)C1` [27 (R-isomer)], for which the pIC50 in assay [1] and in assay [2] was more than 7.00 each time.

For the molecule `C=CC(=O)N1CCCC(n2nc(-c3ccc(Oc4ccccc4)cc3)c(C(N)=O)c2NC)C1` (stereo not shown) [Example 1, 1-(1-acryloylpiperidin-3-yl)-5-(methylamino)-3-(4-phenoxyphenyl)-1H-pyrazole-4-carboxamide], the negative logarithm of the IC50 (pIC50) in assay [1] and in assay [2] was more than 7.00 each time.

For the molecule `C=CC(=O)N1CCC[C@@H](n2nc(-c3ccc(Oc4ccccc4)cc3)c(C(N)=O)c2NC)C1` [Example 2, (R)-1-(1-acryloylpiperidin-3-yl)-5-(methylamino)-3-(4-phenoxyphenyl)-1H-pyrazole-4-carboxamide], the pIC50 in assay [1] and in assay [2] was more than 7.00 each time.

For the molecule `C=CC(=O)N1CCCC(n2nc(-c3ccc(Oc4ccccc4)cc3)c(C(N)=O)c2NCC)C1` (stereo not shown) [Example 6, 1-(1-acryloylpiperidin-3-yl)-5-(ethylamino)-3-(4-phenoxyphenyl)-1H-pyrazole-4-carboxamide], the pIC50 in assay [1] and in assay [2] was more than 7.00 in each case.

For `C=CC(=O)N1CCCC(n2nc(-c3ccc(Oc4ccccc4)cc3)c(C(N)=O)c2NCCN2CCOCC2)C1` (stereo not shown) [Example 13, 1-(1-acryloylpiperidin-3-yl)-5-(2-morpholinoethylamino)-3-(4-phenoxy-phenyl)-1H-pyrazole-4-carboxamide], the pIC50 in assay [1] and in assay [2] was more than 7.00 each time.

On to `C=CC(=O)N1CCCC(n2nc(-c3ccc(Oc4ccccc4)cc3)c(C(N)=O)c2NCCN2CCN(C)CC2)C1` (stereo not shown) [Example 15, 1-(1-acryloylpiperidin-3-yl)-5-(2-(4-methylpiperazin-1-yl)ethylamino)-3-(4-phenoxy-phenyl)-1H-pyrazole-4-carboxamide], for which the pIC50 in assay [1] and in assay [2] was more than 7.00 throughout.

As to `C=CC(=O)N1CCC[C@@H](n2nc(-c3ccc(Oc4ccccc4)cc3)c(C(N)=O)c2N)C1` [Example 18, (R)-1-(1-acryloylpiperidin-3-yl)-5-amino-3-(4-phenoxyphenyl)-1H-pyrazole-4-carboxamide], in assay [2], the pIC50 is more than 7.00.

Turning to `NC(=O)c1c(-c2ccc(Oc3ccccc3)cc2)nn(C2CCCCC2)c1N` [Example 20, 5-amino-1-cyclohexyl-3-(4-phenoxyphenyl)-1H-pyrazole-4-carboxamide], the pIC50 in assay [1] and in assay [2] was more than 7.00 each time.

In the case of `C=CC(=O)N1CCCC(n2nc(-c3ccc(Oc4ccccc4)cc3)c(C(N)=O)c2N)C1` (stereo not shown) [Example 22, 1-(1-acryloylpiperidin-3-yl)-5-amino-3-(4-phenoxyphenyl)-1H-pyrazole-4-carboxamide], in assay [2], the pIC50 was more than 7.00.

With `C=CC(=O)N1CCC[C@H](n2nc(-c3ccc(Oc4ccccc4)cc3)c(C(N)=O)c2N)C1` [Example 23, (S)-1-(1-acryloylpiperidin-3-yl)-5-amino-3-(4-phenoxyphenyl)-1H-pyrazole-4-carboxamide], the pIC50 in assay [2] is more than 7.00.

`C=CC(=O)N1CCC(n2nc(-c3ccc(Oc4ccccc4)cc3)c(C(N)=O)c2N)CC1` [Example 24, 1-(1-acryloylpiperidin-4-yl)-5-amino-3-(4-phenoxyphenyl)-1H-pyrazole-4-carboxamide]: the pIC50 in assay [1] and in assay [2] was more than 7.00 throughout.

In the case of `C=CC(=O)N1CCC(n2nc(-c3ccc(Oc4ccccc4)cc3)c(C(N)=O)c2N)C1` (stereo not shown) [Example 25, 1-(1-acryloylpyrrolidin-3-yl)-5-amino-3-(4-phenoxyphenyl)-1H-pyrazole-4-carboxamide], the pIC50 in assay [1] and in assay [2] was more than 7.00 throughout.

As to `C#CC(=O)N1CCCC(n2nc(-c3ccc(Oc4ccccc4)cc3)c(C(N)=O)c2N)C1` (stereo not shown) [Example 26, 5-amino-3-(4-phenoxyphenyl)-1-(1-propioloylpiperidin-3-yl)-1H-pyrazole-4-carboxamide], the pIC50 in assay [1] and in assay [2] was more than 7.00 in each case.

As for `C=CS(=O)(=O)N1CCCC(n2nc(-c3ccc(Oc4ccccc4)cc3)c(C(N)=O)c2N)C1` (stereo not shown) [Example 27, 5-amino-3-(4-phenoxyphenyl)-1-(1-(vinylsulfonyl)piperidin-3-yl)-1H-pyrazole-4-carboxamide], the pIC50 in assay [1] and in assay [2] was more than 7.00 throughout.

For `NC(=O)c1c(-c2ccc(Oc3ccccc3)cc2)nn(C2CCCN(C(=O)CCl)C2)c1N` (stereo not shown) [Example 28, 5-amino-1-(1-(2-chloroacetyl)piperidin-3-yl)-3-(4-phenoxyphenyl)-1H-pyrazole-4-carboxamide], the pIC50 in assay [1] and in assay [2] was more than 7.00 each time.

As for `CN(C)C/C=C/C(=O)N1CCCC(n2nc(-c3ccc(Oc4ccccc4)cc3)c(C(N)=O)c2N)C1` (stereo not shown) [Example 29, (E)-5-amino-1-(1-(4-(dimethylamino)but-2-enoyl)piperidin-3-yl)-3-(4-phenoxyphenyl)-1H-pyrazole-4-carboxamide], the pIC50 in assay [1] and in assay [2] was more than 7.00 each time.

In the case of `C=CC(=O)N(C)CCn1nc(-c2ccc(Oc3ccccc3)cc2)c(C(N)=O)c1N` [Example 30, 5-amino-1-(2-(N-methylacrylamido)ethyl)-3-(4-phenoxyphenyl)-1H-pyrazole-4-carboxamide], the pIC50 in assay [1] and in assay [2] was more than 7.00 each time.

For the molecule `C=CC(=O)NCCn1nc(-c2ccc(Oc3ccccc3)cc2)c(C(N)=O)c1N` [Example 31, 1-(2-acrylamidoethyl)-5-amino-3-(4-phenoxyphenyl)-1H-pyrazole-4-carboxamide], the pIC50 in assay [1] and in assay [2] was more than 7.00 each time.

For the molecule `C#CC(=O)N(C)CCn1nc(-c2ccc(Oc3ccccc3)cc2)c(C(N)=O)c1N` [Example 32, 5-amino-1-(2-(N-methylpropiolamido)ethyl)-3-(4-phenoxyphenyl)-1H-pyrazole-4-carboxamide], the pIC50 in assay [1] and in assay [2] was more than 7.00 throughout.

Turning to `C=CS(=O)(=O)N(C)CCn1nc(-c2ccc(Oc3ccccc3)cc2)c(C(N)=O)c1N` [Example 33, 5-amino-1-(2-(N-methylvinylsulfonamido)ethyl)-3-(4-phenoxyphenyl)-1H-pyrazole-4-carboxamide], the pIC50 in assay [1] and in assay [2] was more than 7.00 each time.

Turning to `CN(CCn1nc(-c2ccc(Oc3ccccc3)cc2)c(C(N)=O)c1N)C(=O)CCl` [Example 34, 5-amino-1-(2-(2-chloro-N-methylacetamido)ethyl)-3-(4-phenoxyphenyl)-1H-pyrazole-4-carboxamide], the pIC50 in assay [1] and in assay [2] was more than 7.00 throughout.

On to `CN(C)C/C=C/C(=O)N(C)CCn1nc(-c2ccc(Oc3ccccc3)cc2)c(C(N)=O)c1N` [Example 35, (E)-5-amino-1-(2-(4-(dimethylamino)-N-methylbut-2-enamido)ethyl)-3-(4-phenoxyphenyl)-1H-pyrazole-4-carboxamide], for which the pIC50 in assay [1] and in assay [2] was more than 7.00 each time.

As for `C=CC(=O)N1CCCC(n2nc(-c3ccc(Oc4ccccc4)cc3)c(C(N)=S)c2N)C1` (stereo not shown) [Example 37, 1-(1-acryloylpiperidin-3-yl)-5-amino-3-(4-phenoxyphenyl)-1H-pyrazole-4-carbothioamide], the pIC50 in assay [1] and in assay [2] was more than 7.00 throughout.

Take `C=CC(=O)N1CC[C@@H](n2nc(-c3ccc(Oc4cc(F)cc(F)c4)cc3)c(C(N)=O)c2N)C1` [Example 41, (R)-1-(1-acryloylpyrrolidin-3-yl)-5-amino-3-(4-(3,5-difluorophenoxyl)phenyl)-1H-pyrazole-4-carboxamide]: the pIC50 in assay [1] and in assay [2] was more than 7.00 in each case.

On to `C=CC(=O)N1CC[C@@H](n2nc(-c3ccc(Oc4cccc(OC)c4)cc3)c(C(N)=O)c2N)C1` [Example 42, (R)-1-(1-acryloylpyrrolidin-3-yl)-5-amino-3-(4-(3-methoxyphenoxyl)phenyl)-1H-pyrazole-4-carboxamide], for which the pIC50 in assay [1] and in assay [2] was more than 7.00 in each case.

As to `C=CC(=O)N1CC[C@@H](n2nc(-c3ccc(Oc4ccc(Cl)cc4)cc3)c(C(N)=O)c2N)C1` [Example 43, (R)-1-(1-acryloylpyrrolidin-3-yl)-5-amino-3-(4-(4-chlorophenoxyl)phenyl)-1H-pyrazole-4-carboxamide], the pIC50 in assay [1] and in assay [2] was more than 7.00 throughout.

`C=CC(=O)N1CC[C@@H](n2nc(-c3ccc(Oc4cccc(C(F)(F)F)c4)cc3)c(C(N)=O)c2N)C1` [Example 44, (R)-1-(1-acryloylpyrrolidin-3-yl)-5-amino-3-(4-(3-(trifluoromethyl)phenoxy)phenyl)-1H-pyrazole-4-carboxamide]: the pIC50 in assay [1] and in assay [2] was more than 7.00 throughout.
